Measured values: PMC12373846, “Hemoglobin as a pseudoperoxidase and drug target for oxidative stress-related diseases” (Signal Transduction and Targeted Therapy, 2025)
Several values for one entry are separate records, joined by “and”; a condition that tells them apart may be missing. Identical values can stand only once. Like-named read-outs stand apart in the source and are kept apart here.

Experiments:
APP/PS1 mice = assay: Novel place recognition test, APP/PS1 mice; format: in vivo, mouse
Experimental: For an animal model of AD, both sexes of 10- to 18-month-old APP/PS1 mice were maintained and used as previously described.[76],[77] To test the effects of novel H2O2-decomposing enhancers in the AD model, the mice were treated by i.p. injection with KDS12008 (3 mg/kg/day), KDS12017 (3 mg/kg/day), or KDS12025 (3 or 10 mg/kg/day) once per day for 1 or 2 weeks, depending on the experimental protocol. All drugs were dissolved in 200 μl of saline, and the amount of each drug was calculated on the basis of the weight (kg) of the mouse. Moreover, KDS12025 (3 mg/kg/day) was orally administered to the AD model for 2 weeks ad libitum.
Before the novel place recognition (NPR) test, the mice were subjected to sufficient handling and were concurrently habituated to an open field test (OFT) in a square chamber (40 × 40 × 40 cm). After habituation, the mice were placed in the open field with two identical objects positioned in the first and second quadrants of the cage. The mice were allowed to explore the objects freely for 10 min and then returned to their home cages for 1 h. To test spatial recognition memory, one of the two identical objects was placed in a novel place (quadrant), and the mice were re-entered into the open field chamber for 10 min. The discrimination index (DI) was calculated as the percentage of time spent on the novel place over the total time spent on both the novel and the familiar place. Frequencies were quantified via EthoVision XT software (Noldus, Netherlands).
The mice were deeply anesthetized with vaporized 1% isoflurane and placed into stereotaxic frames (RWD Life Science, China). Following an incision on the midline of the scalp, a hole was drilled into the skull above the hippocampus. AAV-GFAP104-GFP or AAV-GFAP104-DTR-GFP was bilaterally microinjected into the hippocampal CA1 region (AP, −2.0 mm; ML, ±1.5 mm; DV, −1.65 mm from the bregma). Diphtheria toxin (2 mg/ml) was administered for 16 days as previously described.[77] For shRNA knockdown, AAV-pSicoR-Hbβ-shRNA-mCherry or AAV-pSicoR-Sc-shRNA-mCherry was microinjected into the same coordinate system. A total of 0.8 µl of the virus was injected via a syringe pump (KD Scientific, USA). The injection procedures were implemented before 5 weeks of the experiments. For cell type-specific knockdown, AAV-pSico-Hbβ-shRNA-GFP or AAV-pSico-Sc-shRNA-GFP was combined with either AAV-CaMKII-Cre-mCherry for neuronal targeting or AAV-GFAP-Cre-mCherry for astrocyte targeting. The viruses were bilaterally injected into the hippocampus and substantia nigra via the same stereotaxic coordinates and injection procedures. All viruses used in this study were produced at the Institute for Basic Science virus facility (IBS virus facility, Korea). To investigate the effects of 0.1 mg/kg/day KDS12025, GiD mice were injected with diphtheria toxin (2 mg/ml) daily for 16 days. Concurrently, KDS12025 was administered ad libitum (0.1 mg/kg/day) during the same period.

ACE (h) = target: T1, ACE (h) (Homo sapiens, UniProt P12821); assay: SafetyScreen87 panel; format: biochemical; details: 1.00E-06, read-out: % Inhibition of Control Specific Binding (1st, 2nd, Mean)
T1 construct: purchased Eurofins Discovery (Cerep, France)
Experimental: (§1) The possibility of KDS12025 on kinase off-target, the KINOMEscan panel of scanEDGE assay was conducted in DiscoverX (CA, USA) using a site-directed competition binding with the test compounds. The assay results are given in Supplementary Table 4 and experimental information is available on the DiscoverX web page (www.discoverx.com). Moreover, the Delta SafetyScreen87 panel assay was conducted in Eurofins Discovery (Cerep, France). The assay results are given in Supplementary Table 5 and experimental information is available on the DiscoverX web page (https://www.eurofinsdiscoveryservices.com).

ATPase (Na+/K+) = assay: SafetyScreen87 panel; format: biochemical; details: 1.00E-06; read-out: % Inhibition of Control Specific Binding (1st, 2nd, Mean)
Experimental: as §1

COX1(h) = target: T2, COX1(h) (Homo sapiens, UniProt P23219); assay: SafetyScreen87 panel; format: biochemical; details: 1.00E-06, read-out: % Inhibition of Control Specific Binding (1st, 2nd, Mean)
T2 construct: Eurofins Discovery (Cerep, France) SafetyScreen87 panel
T2 sequence (P23219 24-599): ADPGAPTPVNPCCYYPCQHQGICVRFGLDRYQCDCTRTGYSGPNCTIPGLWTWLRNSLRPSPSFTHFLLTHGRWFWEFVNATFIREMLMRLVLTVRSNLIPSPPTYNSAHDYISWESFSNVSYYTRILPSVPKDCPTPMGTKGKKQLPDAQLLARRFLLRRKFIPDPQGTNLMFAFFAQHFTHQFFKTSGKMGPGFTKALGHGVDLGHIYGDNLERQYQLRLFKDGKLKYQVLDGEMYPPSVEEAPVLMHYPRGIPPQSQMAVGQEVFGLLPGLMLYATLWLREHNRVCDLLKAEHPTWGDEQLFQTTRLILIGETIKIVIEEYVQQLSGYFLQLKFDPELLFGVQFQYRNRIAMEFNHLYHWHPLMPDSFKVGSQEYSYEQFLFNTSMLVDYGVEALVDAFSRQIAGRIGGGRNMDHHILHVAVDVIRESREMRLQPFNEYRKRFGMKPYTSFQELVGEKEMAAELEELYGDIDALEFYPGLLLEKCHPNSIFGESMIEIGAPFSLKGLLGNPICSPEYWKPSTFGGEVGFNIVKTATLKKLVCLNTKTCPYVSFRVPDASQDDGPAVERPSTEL
Experimental: as §1

COX2(h) = target: T3, COX2(h) (Homo sapiens, UniProt P35354); assay: SafetyScreen87 panel; format: biochemical; details: 1.00E-06, read-out: % Inhibition of Control Specific Binding (1st, 2nd, Mean)
T3 construct: purchased Eurofins Discovery (Cerep, France)
T3 sequence (P35354 18-604): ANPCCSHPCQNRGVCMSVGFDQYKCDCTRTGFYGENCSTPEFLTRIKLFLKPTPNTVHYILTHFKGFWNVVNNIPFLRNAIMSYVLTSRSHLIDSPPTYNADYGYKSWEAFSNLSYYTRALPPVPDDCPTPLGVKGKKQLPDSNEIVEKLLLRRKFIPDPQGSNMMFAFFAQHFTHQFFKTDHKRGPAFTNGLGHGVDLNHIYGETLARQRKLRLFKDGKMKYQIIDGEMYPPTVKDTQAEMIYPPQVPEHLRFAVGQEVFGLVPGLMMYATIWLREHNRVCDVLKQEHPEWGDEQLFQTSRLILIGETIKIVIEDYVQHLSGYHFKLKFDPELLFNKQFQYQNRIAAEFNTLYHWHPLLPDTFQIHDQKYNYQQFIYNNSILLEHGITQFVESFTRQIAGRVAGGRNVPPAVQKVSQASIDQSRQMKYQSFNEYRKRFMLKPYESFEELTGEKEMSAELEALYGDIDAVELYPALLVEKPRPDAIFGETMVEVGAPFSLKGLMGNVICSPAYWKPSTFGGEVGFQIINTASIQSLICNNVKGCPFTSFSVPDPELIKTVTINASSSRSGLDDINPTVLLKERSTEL
Experimental: as §1

IRK (h) (InsR) = target: T4, IRK (h) (InsR) (Homo sapiens, UniProt P06213); assay: SafetyScreen87 panel; format: biochemical
T4 construct: purchased Eurofins Discovery (Cerep, France)
Experimental: as §1

Lck kinase (h) = target: T5, Lck kinase (h) (Homo sapiens, UniProt P06239); assay: SafetyScreen87 panel; format: biochemical; details: 1.00E-06, read-out: % Inhibition of Control Specific Binding (1st, 2nd, Mean)
T5 construct: purchased Eurofins Discovery (Cerep, France)
Experimental: as §1

[1] = target: T6, MAO-B (h) recombinant enzyme (Homo sapiens, UniProt P27338); assay: SafetyScreen87 panel; format: biochemical; details: 1.00E-06, read-out: % Inhibition of Control Specific Binding (1st, 2nd, Mean)
T6 construct: purchased Eurofins Discovery (Cerep, France)
T6 sequence (P27338 whole entry): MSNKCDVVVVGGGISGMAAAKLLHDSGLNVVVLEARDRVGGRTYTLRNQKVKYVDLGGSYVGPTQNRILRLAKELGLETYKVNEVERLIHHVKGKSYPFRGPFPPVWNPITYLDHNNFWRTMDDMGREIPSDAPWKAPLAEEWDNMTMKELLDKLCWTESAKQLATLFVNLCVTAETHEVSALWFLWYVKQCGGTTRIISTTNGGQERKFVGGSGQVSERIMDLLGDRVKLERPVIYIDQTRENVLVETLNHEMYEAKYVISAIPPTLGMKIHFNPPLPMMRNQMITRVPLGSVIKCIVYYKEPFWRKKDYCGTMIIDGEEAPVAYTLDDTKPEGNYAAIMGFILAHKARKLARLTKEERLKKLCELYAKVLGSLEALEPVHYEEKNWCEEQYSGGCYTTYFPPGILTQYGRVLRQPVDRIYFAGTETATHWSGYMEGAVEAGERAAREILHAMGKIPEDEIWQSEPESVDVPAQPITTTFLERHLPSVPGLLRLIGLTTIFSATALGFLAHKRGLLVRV
Experimental: as §1

PDE3A (h) = target: T7, PDE3A (h) (Homo sapiens, UniProt Q14432); assay: SafetyScreen87 panel; format: biochemical
T7 construct: purchased Eurofins Discovery (Cerep, France)
T7 sequence (Q14432 whole entry): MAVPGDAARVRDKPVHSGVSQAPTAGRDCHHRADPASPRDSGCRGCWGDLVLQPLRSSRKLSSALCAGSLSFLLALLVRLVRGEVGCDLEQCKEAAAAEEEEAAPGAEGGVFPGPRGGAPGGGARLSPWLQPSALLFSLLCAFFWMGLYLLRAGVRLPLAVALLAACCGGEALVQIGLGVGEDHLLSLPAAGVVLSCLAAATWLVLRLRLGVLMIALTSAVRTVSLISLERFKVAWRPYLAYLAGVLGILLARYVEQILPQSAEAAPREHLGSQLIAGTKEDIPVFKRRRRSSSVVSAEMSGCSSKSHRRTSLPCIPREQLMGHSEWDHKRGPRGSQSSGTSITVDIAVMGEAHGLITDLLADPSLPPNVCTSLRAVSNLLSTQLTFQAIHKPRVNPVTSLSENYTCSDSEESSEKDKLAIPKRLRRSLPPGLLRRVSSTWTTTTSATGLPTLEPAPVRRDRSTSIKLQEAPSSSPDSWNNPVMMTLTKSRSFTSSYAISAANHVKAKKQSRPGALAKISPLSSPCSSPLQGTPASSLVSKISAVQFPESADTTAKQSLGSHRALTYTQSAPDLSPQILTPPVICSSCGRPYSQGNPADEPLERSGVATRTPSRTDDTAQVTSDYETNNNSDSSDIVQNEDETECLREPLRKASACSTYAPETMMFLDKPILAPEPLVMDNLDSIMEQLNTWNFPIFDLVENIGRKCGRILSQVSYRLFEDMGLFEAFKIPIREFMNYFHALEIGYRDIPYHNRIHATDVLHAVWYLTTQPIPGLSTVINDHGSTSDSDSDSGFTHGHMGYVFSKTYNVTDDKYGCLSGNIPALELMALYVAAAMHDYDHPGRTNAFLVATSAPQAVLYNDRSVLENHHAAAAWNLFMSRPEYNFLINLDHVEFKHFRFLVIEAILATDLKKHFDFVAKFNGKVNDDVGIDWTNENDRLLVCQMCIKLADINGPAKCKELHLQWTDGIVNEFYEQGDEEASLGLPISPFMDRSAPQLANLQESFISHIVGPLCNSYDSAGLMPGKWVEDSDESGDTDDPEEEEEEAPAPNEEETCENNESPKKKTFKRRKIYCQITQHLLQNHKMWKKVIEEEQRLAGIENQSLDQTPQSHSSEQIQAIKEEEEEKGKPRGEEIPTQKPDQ
Experimental: as §1

PDE4D2 (h) = target: T8, PDE4D2 (h) (Homo sapiens, UniProt Q08499); assay: SafetyScreen87 panel; format: biochemical
T8 construct: purchased Eurofins Discovery (Cerep, France)
T8 sequence (Q08499 303-809 limits assumed): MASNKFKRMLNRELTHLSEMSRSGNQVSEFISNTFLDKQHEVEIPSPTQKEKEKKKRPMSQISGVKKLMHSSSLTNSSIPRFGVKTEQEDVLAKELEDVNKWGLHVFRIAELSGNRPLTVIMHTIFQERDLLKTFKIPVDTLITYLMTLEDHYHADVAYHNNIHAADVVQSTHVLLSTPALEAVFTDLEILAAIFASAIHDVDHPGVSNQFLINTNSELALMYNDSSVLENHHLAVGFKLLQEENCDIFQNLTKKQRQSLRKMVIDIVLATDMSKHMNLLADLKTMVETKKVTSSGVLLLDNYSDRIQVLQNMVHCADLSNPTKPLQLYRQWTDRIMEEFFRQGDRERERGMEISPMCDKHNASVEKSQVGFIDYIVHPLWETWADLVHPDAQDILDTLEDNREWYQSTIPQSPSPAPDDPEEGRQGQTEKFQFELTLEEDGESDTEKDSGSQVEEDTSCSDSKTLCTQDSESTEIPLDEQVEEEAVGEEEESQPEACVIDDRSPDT
Experimental: as §1

PKCalpha (h) = target: T9, PKCalpha (h) (Homo sapiens, UniProt P17252); assay: SafetyScreen87 panel; format: biochemical; details: 1.00E-06, read-out: % Inhibition of Control Specific Binding (1st, 2nd, Mean)
T9 construct: purchased Eurofins Discovery (Cerep, France)
Experimental: as §1

acetylcholinesterase (h) = target: T10, acetylcholinesterase (h) (Homo sapiens, UniProt P22303); assay: SafetyScreen87 panel; format: biochemical; details: 1.00E-06, read-out: % Inhibition of Control Specific Binding (1st, 2nd, Mean)
T10 construct: purchased Eurofins Discovery (Cerep, France)
T10 sequence (P22303 32-614): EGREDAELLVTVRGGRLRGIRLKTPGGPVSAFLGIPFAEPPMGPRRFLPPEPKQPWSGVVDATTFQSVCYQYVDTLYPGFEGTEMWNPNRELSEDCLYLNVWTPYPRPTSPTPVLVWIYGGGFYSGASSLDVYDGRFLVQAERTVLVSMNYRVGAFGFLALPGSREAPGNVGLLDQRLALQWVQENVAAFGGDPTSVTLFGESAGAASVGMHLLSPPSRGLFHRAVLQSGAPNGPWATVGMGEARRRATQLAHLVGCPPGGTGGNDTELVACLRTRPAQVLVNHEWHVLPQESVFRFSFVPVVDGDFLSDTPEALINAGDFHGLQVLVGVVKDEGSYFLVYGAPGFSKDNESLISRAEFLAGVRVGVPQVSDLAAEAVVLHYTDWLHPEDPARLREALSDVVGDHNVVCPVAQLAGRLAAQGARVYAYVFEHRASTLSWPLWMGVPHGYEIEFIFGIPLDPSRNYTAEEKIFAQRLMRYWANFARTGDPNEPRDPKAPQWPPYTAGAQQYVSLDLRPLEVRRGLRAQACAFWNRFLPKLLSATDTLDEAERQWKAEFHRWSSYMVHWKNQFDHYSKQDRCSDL
Experimental: as §1

cathepsin G (h) = target: T11, cathepsin G (h) (Homo sapiens, UniProt P08311); assay: SafetyScreen87 panel; format: biochemical; details: 1.00E-06, read-out: % Inhibition of Control Specific Binding (1st, 2nd, Mean)
T11 construct: purchased Eurofins Discovery (Cerep, France)
T11 sequence (P08311 21-255): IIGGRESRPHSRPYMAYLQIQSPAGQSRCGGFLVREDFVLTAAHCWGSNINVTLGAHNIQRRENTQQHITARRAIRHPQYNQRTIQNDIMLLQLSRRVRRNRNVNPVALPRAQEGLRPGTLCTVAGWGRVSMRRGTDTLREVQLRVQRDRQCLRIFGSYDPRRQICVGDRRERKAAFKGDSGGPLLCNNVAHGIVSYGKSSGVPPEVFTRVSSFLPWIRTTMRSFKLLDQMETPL
Experimental: as §1

[2] = 1.00E-06; read-out: % Inhibition of Control Specific Binding (1st, 2nd, Mean)
[3] = read-out: % Inhibition of Control Specific Binding (1st, 2nd, Mean); 1.00E-06

CNc1ccc(NCCc2ccccc2OC)cc1.Cl [KDS12025, N^1-(2-methoxyphenethyl)-N^4-methylbenzene-1,4-diamine hydrochloride salt]
NPR discrimination index (APP/PS1 mice; APP+KDS12025 3 mg/kg/day ad libitum, Fig. 5n): WT (0.2560±0.07604, n=6), APP (-0.0956±0.05233, n=5), APP+KDS12025 (ad libitum) (0.2057±0.04843, n=6) One-way ANOVA with Tukey's multiple comparisons test, F(2,14) = 8.997, p = 0.003 WT vs. APP, p = 0.004; WT vs. APP+KDS12025 (ad libitum), p = 0.82; APP vs. APP+KDS12025 (ad libitum), p = 0.01
NPR discrimination index (APP/PS1 mice; APP+ScRNA+KDS12025, Fig. 6g): 0.46±0.09
NPR discrimination index (APP/PS1 mice; APP+shHbβ+KDS12025, Fig. 6g): -0.06±0.082
NPR discrimination index (APP/PS1 mice; APP+shHbβ::CaMKII+KDS12025, Fig. 6l): 0.24±0.08
NPR discrimination index (APP/PS1 mice; APP+shHbβ::GFAP+KDS12025, Fig. 6l): -0.04±0.059
activity (ACE (h); mean): 100%
activity (ACE (h)): 101% and 99.4%
activity (ATPase (Na+/K+)): 97.8%
activity (COX1(h); mean): 59.3%
activity (COX1(h)): 62.5% and 56.1%
activity (COX2(h); mean): 43.8%
activity (COX2(h)): 42.2% and 45.3%
activity (IRK (h) (InsR); [2]): 109%
activity (IRK (h) (InsR); [3]): 100%
activity (Lck kinase (h); mean): 94.1%
activity (Lck kinase (h)): 95.9% and 92.2%
activity ([1]; mean): 119%
activity [1]: 116% and 121%
activity (PDE3A (h); [2]): 89.8%
activity (PDE3A (h); [3]): 87.1% and 92.4%
activity (PDE4D2 (h); [2]): 95.3% and 102%
activity (PDE4D2 (h); [3]): 98.7%
activity (PKCalpha (h); mean): 104%
activity (PKCalpha (h)): 105% and 103%
activity (acetylcholinesterase (h); mean): 91.7%
activity (acetylcholinesterase (h)): 92.6% and 90.8%
activity (cathepsin G (h); mean): 100%
activity (cathepsin G (h)): 97.2% and 103%
